Experimental data as given in patent US7067633B2, “Targeting cellular entry, cell survival, and pathogenicity by dynein light chain 1/PIN in human cells” (Board of Regents, The University of Texas System, priority 2003, dated 2006).

Columns and labels:
[1] = tested on: ER transactivation (ERE-luc); assay: ERE-luc transactivation assay; type: cell-based, human
Procedure: MCF-7/DA-Pak1 cells were transfected with ERE-luc, treated with or without Dox for 24 h and then with or without E2 (10^−9M) and/or Tam (10^−8M) for 24 h, and ERE-luc activity was measured. […] FIG. 20D: MCF-7/TAM-Sen and MCF-7/TAMR1 cells were transfected with ERE-luc and treated with E2 or Tam for 24 h and ERE-luc activity was measured. […] FIG. 20L: Ishikawa cells were cotransfected with Pak1 siRNA control or Pak1 siRNA wt and treated with or without Tam (10^−8M) for 24 h and ERE-luc activity was measured.
Ishikawa and MCF-7/TAMR1 cells were transfected with control or Pak1 siRNA for 48 h and then with ERE-luc for 24 h and treated with E2 (10^−9M) for 24 h and ERE-luc activity was measured. […] Ishikawa cells were treated with control or and Pak1 and DLC siRNA for 48 h and then transfected with ERE-luc and treated with Tam (10^−8M) for 24 h and ERE-luc activity was measured.

[2] = tested on: Pak1; assay: Pak1 protein expression by immunoblot; type: cell-based, human
Description: FIGS. 20A–20L—Pak1 activation confers tamoxifen-resistance. FIG. 20A: Pak1 activation promoted ER-transactivation function.

[3] = tested on: DLC1 promoter; assay: DLC1 promoter luciferase reporter; type: cell-based, human; settings: Ishikawa cells, 24 h
Procedure: FIGS. 21A–21J—Estrogenic signals upregulate DLC1 expression via Pak1 pathway. FIG. 21A: DLC1 upregulation by E2 or Tam. MCF-7/Tam-sen, MCF-7/TAMR1 and Ishikawa cells were treated with E2 (10^−9M) or Tam (10^−9M) for 24 h, and cell lysates were assayed for DLC1 and Pak1 protein expression. FIG. 21B: Upregulation of DLC1 mRNA in MCF-7 cells treated with different doses of E2 for 24 h. FIG. 21C: Effect of different periods of E2 treatment and cycloheximide (CHX) and Actinomycin D (ACTD) treatment on the ability of E2 to upregulate DLC1 mRNA in MCF-7 cells. FIG. 21D: DLC1 mRNA and protein levels in MCF-7/DA-Pak1 cells by Northern and Western blotting. FIG. 21E: DLC1 mRNA and protein levels in MCF-7/DN-Pak1 cells by Northern and Western blotting. FIG. 21F: Downregulation of DLC1 protein expression in MCF-7 cells treated with Pak1-siRNA for 24 h. FIG. 21G: Modulation of DLC1 promoter (1245 bp) luc activity by the expression of wtPak1 or DN-Pak1. MCF-7 cells were transfected with DLC1-luc and transfected with either wtPak1 or Pak1 inhibitor 83-149 and luc activity was measured after 24 h. FIG. 21H: Upregulation of DLC1 promoter luc activity following pak1 induction in MCF-7/DA-Pak 1 cells. FIG. 21I: Downegulation of DLC1 promoter luc activity in MCF-7/DN-pak1 cells. […]

[4] = tested on: ZR75 cells; assay: Tumorigenicity of stably expressing ZR75 cells in nude mice; type: in vivo; settings: 5×10^6 cells, no exogenous estradiol
Procedure: FIGS. 6A–6E—DLC1/PIN overexpression potentiates anchorage-independent growth and promotes tumorigenesis. FIG. 6A: Effect DLC1/PIN expression on anchorage-independent growth of ZR75 cells. The anchorage-independent growth potential of DLC1/PIN-expressing clones was measured by the ability of the cells to form colonies on soft agar. […] Error bars represent standard error of mean. FIG. 6B: Western blot analysis of the expression of DLC1/PIN and Pak1 in lysates from cells derived from MCF10AT model system. […] FIG. 6C: Nude mice were injected with 5×10^6 cells stably expressing pcDNA or wild type DLC1/PIN (clone#2) or mutant DLC1/PIN^del88-89 and tumor growth was measured at weekly intervals. […] Tumor growth was only observed in cells expressing wild type DLC1/PIN but not detected in mutant expressing cells. FIG. 6E: Morphology of tumor and expression of T7-DLC1/PIN in DLC1/PIN-induced tumors as measured by H&E and anti T7 staining respectively.
Cell proliferation, soft-agar, and tumorigenicity assays. […] For xenograft studies, 5×10^6 cells were implanted subcutaneously into mammary fat-pads of 10 nude mice, as previously described (Bagheri et al., 2001), and allowed to grow for 20 weeks; tumor size was then measured. […]

Compound | inhibitory effects on ERE-luc activity ([1]; Ishikawa cells, both DLC1 and Pak1 knocked down) | Pak1-mediated ERE-stimulation ([1]; MCF-7/DA-Pak1 cells) | Pak1 protein expression ([2]; Ishikawa cells, long-term treatment) | levels of Pak1 protein ([2]; MCF-7 cells) | DLC1 promoter activity [3] | tumorigenic potential [4]
CC/C(=C(\c1ccccc1)c1ccc(OCCN(C)C)cc1)c1ccccc1 [tamoxifen] | restored the inhibitory effects | not inhibited | increase | no effect | stimulated | –
DLC1/PIN^del 88-89: DLC1/PIN mutant in which Ser88 and amino acid 89 were deleted | – | – | – | – | – | did not exhibited any tumorigenic potential
